pKi: −log10 of the molar value.
How the values were obtained:
[1] = Binding affinity to SARS-CoV-2 Omicron main protease P132H mutant expressed in Escherichia coli assessed as dissociation constant using fluorogenic substrate incubated for 90 mins by fluorescence based analysis; set-up: species or system Severe acute respiratory syndrome coronavirus 2
[2] = Binding affinity to SARS-CoV-2 main protease E166 V mutant expressed in Escherichia coli assessed as dissociation constant using fluorogenic substrate incubated for 90 mins by fluorescence based analysis; set-up: species or system Severe acute respiratory syndrome coronavirus 2

Structure (SMILES) | pKi [1] | pKi [2]
CNC[C@@H](Cc1ccc(Cl)cc1)N(C)C(=O)C[C@H]1CCCN1C(=O)c1cncc2ccccc12 | 7.46 | 5.92
CC(C)(C)[C@H](NC(=O)C(F)(F)F)C(=O)N1C[C@H]2[C@@H]([C@H]1C(=O)N[C@H](C#N)C[C@@H]1CCNC1=O)C2(C)C | 9.00 | < 5.30
CN1C(=O)C[C@H]2CC3(CC3)CN2C(=O)c2cncc(c2)NCCC/C=C/CNC(=O)[C@H]1Cc1ccc(Cl)cc1Cl | > 9.00 | 7.96
CN1C(=O)C[C@H]2CC3(CC3)CN2C(=O)c2cncc(c2)NCCCCCCNC(=O)[C@H]1Cc1ccc(Cl)cc1Cl | > 9.00 | 7.92

From ChEMBL document CHEMBL6092207 (J Med Chem, 2024)
